The target in experiment [1] is T1, human calcitonin receptor (Homo sapiens, UniProt P30988).
T1 construct: expressed in transfected cells; host or cells: BHK570
T1 sequence (P30988 25-474): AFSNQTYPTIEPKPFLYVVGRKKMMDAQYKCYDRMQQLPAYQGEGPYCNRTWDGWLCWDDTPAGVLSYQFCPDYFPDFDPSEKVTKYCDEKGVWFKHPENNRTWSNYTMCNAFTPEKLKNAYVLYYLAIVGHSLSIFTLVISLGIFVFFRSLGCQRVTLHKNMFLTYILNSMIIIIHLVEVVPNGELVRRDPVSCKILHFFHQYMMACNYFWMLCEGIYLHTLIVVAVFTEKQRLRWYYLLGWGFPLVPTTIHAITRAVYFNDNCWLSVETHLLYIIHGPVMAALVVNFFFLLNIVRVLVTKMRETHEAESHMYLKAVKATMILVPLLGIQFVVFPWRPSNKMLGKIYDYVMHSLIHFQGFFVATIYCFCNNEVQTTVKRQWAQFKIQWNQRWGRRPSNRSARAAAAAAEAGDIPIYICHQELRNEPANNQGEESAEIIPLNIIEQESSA
As to the kind of experiment: Assay (II)a functional CRE-luciferase assay, human calcitonin receptor. The format is cell-based. The text has this: (§1) 1. Luciferase Assay Outline
(§2) Activation of calcitonin and amylin (coexpression of calcitonin receptor and receptor activity modifying proteins (RAMP)) receptors lead to increased intracellular concentrations of cAMP. Consequently, transcription is activated by promoters containing multiple copies of the cAMP response element (CRE). It is thus possible to measure amylin activity by the use of a CRE luciferase reporter gene introduced into BHK cells also expressing calcitonin or amylin receptors.
(§3) A BHK570 cell line was stably transfected with the human calcitonin receptor and a CRE-responsive luciferase reporter gene. The cell line was further transfected with RAMP-3, using standard methods. This turns the calcitonin receptor into an amylin 3(a) receptor. Methotrexate, Neomycin, and Hygromycin are selection markers for luciferase, the calcitonin receptor, and RAMP-3, respectively.
(§4) To perform activity assays, BHK calcitonin (a) receptor- or amylin 3(a)-receptor/CRE-luc cells were seeded in white 96 well culture plates at a density of about 20.000 cells/well. […] Further, 50 μl/well of standard or sample in assay buffer were added. After 3 hours incubation at 37° C. and 5% CO2, the assay medium with standard or sample were removed and replaced by 100 μl/well PBS. Further, 100 μl/well LucLite™ was added. The plates were sealed and incubated at room temperature for 30 minutes. Finally, luminescence was measured on a TopCounter (Packard) in SPC (single photon counting) mode.

The target in experiment [2] is T2, human amylin receptor (amylin 3(a) receptor: human calcitonin receptor + RAMP-3) (Homo sapiens, UniProt O60896+P30988).
T2 construct: expressed in transfected cells; host or cells: BHK570
T2 sequence (P30988 25-474): T1 sequence (P30988 25-474)
T2 sequence (O60896 24-148 partner): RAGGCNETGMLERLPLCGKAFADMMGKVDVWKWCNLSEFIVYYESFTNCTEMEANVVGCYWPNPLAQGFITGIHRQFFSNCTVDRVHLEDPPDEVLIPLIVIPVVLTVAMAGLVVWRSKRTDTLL
As to the kind of experiment: Assay (II)a functional CRE-luciferase assay, human amylin receptor. The format is cell-based. The settings on record: human amylin receptor.
Source text: as §1, §2, §3, §4

[3] abbreviates: Table 7, human calcitonin (CTa) receptor.

Like-named read-outs stand apart in the source and are kept apart here. Starred links: 1 amine or outer side, 2 acyl side, 3 side chain; linkers in the order of their positions; H or OH if unused. Positions of bridges follow the written chain, without caps; N, C: chain ends. Residues, ends and D or L forms follow the SMILES beside them. *: point of attachment. C20 diacid = O=C(O)CCCCCCCCCCCCCCCCCCC(=O)*; γGlu = O=C(O)[C@H](CCC(=O)[*:2])N[*:1]

Consider `CC[C@H](C)[C@H](NC(=O)[C@@H]1CCCN1C(=O)CNC(=O)[C@H](Cc1ccccc1)NC(=O)[C@H](CC(N)=O)NC(=O)[C@H](CC(N)=O)NC(=O)[C@H](CO)NC(=O)[C@H](CO)NC(=O)[C@H](CCCNC(=N)N)NC(=O)[C@H](Cc1c[nH]cn1)NC(=O)[C@H](CC(C)C)NC(=O)[C@H](Cc1ccccc1)NC(=O)[C@H](CCC(=O)O)NC(=O)[C@H](C)NC(=O)[C@H](CC(C)C)NC(=O)[C@H](CCCNC(=N)N)NC(=O)[C@H](CCC(N)=O)NC(=O)[C@@H](NC(=O)[C@H](CCC(=O)O)NC(=O)[C@@H]1CSSC[C@H](NC(=O)[C@H](Cc2c[nH]cn2)NC(=O)CC[C@H](NC(=O)CCCCCCCCCCCCCCCCCCC(=O)O)C(=O)O)C(=O)N[C@@H](CC(N)=O)C(=O)N[C@@H]([C@@H](C)O)C(=O)N[C@@H](C)C(=O)N[C@@H]([C@@H](C)O)C(=O)N1)[C@@H](C)O)C(=O)N[C@@H](CC(C)C)C(=O)N1CCC[C@H]1C(=O)N1CCC[C@H]1C(=O)N[C@H](C(=O)N[C@@H](CC(N)=O)C(=O)N[C@H](C(=O)NCC(=O)N[C@@H](CO)C(=O)N[C@@H](CC(N)=O)C(=O)N[C@H](C(=O)N[C@@H](Cc1ccc(O)cc1)C(N)=O)[C@@H](C)O)C(C)C)[C@@H](C)O` [Example 2, N-alpha-[(S)-4-Carboxy-4-(19-carboxynonadecanoylamino)butyryl]-[His1,Glu8,Glu14,His17,Arg18]-pramlintide] ({C20 diacid-γGlu}-HCNTATCETQRLAEFLHRSSNNFGPILPPTNVGSNTY-NH2; disulfide 2-7 (inferred)), for which the EC50 in experiment [1] (Table 11, read-out: CTa receptor human EC50) worked out at 4.3 nM; in experiment [2] (Table 6) it was 0.602 nM.

For `CC[C@H](C)[C@H](NC(=O)[C@@H]1CCCN1C(=O)CNC(=O)[C@H](Cc1ccccc1)NC(=O)[C@H](CC(N)=O)NC(=O)[C@H](CC(N)=O)NC(=O)[C@H](CO)NC(=O)[C@H](CO)NC(=O)[C@H](Cc1c[nH]cn1)NC(=O)[C@H](CCCNC(=N)N)NC(=O)[C@H](CC(C)C)NC(=O)[C@H](Cc1ccccc1)NC(=O)[C@H](CCCNC(=N)N)NC(=O)[C@H](C)NC(=O)[C@H](CC(C)C)NC(=O)[C@H](CCCNC(=N)N)NC(=O)[C@H](CCC(N)=O)NC(=O)[C@@H](NC(=O)[C@H](C)NC(=O)[C@@H]1CSSC[C@H](NC(=O)[C@H](CCCCN)NC(=O)CC[C@H](NC(=O)CCCCCCCCCCCCCCCCCCC(=O)O)C(=O)O)C(=O)N[C@@H](CC(N)=O)C(=O)N[C@@H]([C@@H](C)O)C(=O)N[C@@H](C)C(=O)N[C@@H]([C@@H](C)O)C(=O)N1)[C@@H](C)O)C(=O)N[C@@H](CC(C)C)C(=O)N1CCC[C@H]1C(=O)N1CCC[C@H]1C(=O)N[C@H](C(=O)N[C@@H](CC(N)=O)C(=O)N[C@H](C(=O)NCC(=O)N[C@@H](CO)C(=O)N[C@@H](CC(N)=O)C(=O)N[C@H](C(=O)N1CCC[C@H]1C(N)=O)[C@@H](C)O)C(C)C)[C@@H](C)O` [Example 152, N-alpha-[(S)-4-Carboxy-4-(19-carboxynonadecanoylamino)butyryl]-[Arg14,Arg17,Pro37]-pramlintide] ({C20 diacid-γGlu}-KCNTATCATQRLARFLRHSSNNFGPILPPTNVGSNTP-NH2; disulfide 2-7 (inferred); C-terminus assumed), the 50% effective concentration (EC50) in experiment [1] (setting [3]) amounted to 0.453 nM; in experiment [2] (Table 7), 0.129 nM.

With `CC[C@H](C)[C@H](NC(=O)[C@@H]1CCCN1C(=O)CNC(=O)[C@H](Cc1ccccc1)NC(=O)[C@H](CC(N)=O)NC(=O)[C@H](CC(N)=O)NC(=O)[C@H](CO)NC(=O)[C@H](CO)NC(=O)[C@H](Cc1c[nH]cn1)NC(=O)[C@H](CCCNC(=N)N)NC(=O)[C@H](CC(C)C)NC(=O)[C@H](Cc1ccccc1)NC(=O)[C@H](CCC(=O)O)NC(=O)[C@H](C)NC(=O)[C@H](CC(C)C)NC(=O)[C@H](CCCNC(=N)N)NC(=O)[C@H](CCC(N)=O)NC(=O)[C@@H](NC(=O)[C@H](C)NC(=O)[C@@H]1CSSC[C@H](NC(=O)[C@H](CCCNC(=N)N)NC(=O)CNC(=O)CC[C@H](NC(=O)CCCCCCCCCCCCCCCCCCC(=O)O)C(=O)O)C(=O)N[C@@H](CC(N)=O)C(=O)N[C@@H]([C@@H](C)O)C(=O)N[C@@H](C)C(=O)N[C@@H]([C@@H](C)O)C(=O)N1)[C@@H](C)O)C(=O)N[C@@H](CC(C)C)C(=O)N1CCC[C@H]1C(=O)N1CCC[C@H]1C(=O)N[C@H](C(=O)N[C@@H](CC(N)=O)C(=O)N[C@H](C(=O)NCC(=O)N[C@@H](CO)C(=O)N[C@@H](CC(N)=O)C(=O)N[C@H](C(=O)N1CCC[C@H]1C(N)=O)[C@@H](C)O)C(C)C)[C@@H](C)O` [Example 153, N-alpha-[(S)-4-Carboxy-4-(19-carboxynonadecanoylamino)butyryl]-Gly-[Arg1,Glu14,Arg17,Pro37]-pramlintide] ({C20 diacid-γGlu}-GRCNTATCATQRLAEFLRHSSNNFGPILPPTNVGSNTP-NH2; disulfide 3-8 (inferred)), the results for the half-maximal effective concentration (EC50) in experiment [1] (setting [3]) and in experiment [2] (Table 6) were 0.041 nM and 0.043 nM, respectively.

Regarding `CC[C@H](C)[C@H](NC(=O)[C@@H]1CCCN1C(=O)CNC(=O)[C@H](Cc1ccccc1)NC(=O)[C@H](CC(N)=O)NC(=O)[C@H](CC(N)=O)NC(=O)[C@H](CO)NC(=O)[C@H](CO)NC(=O)[C@H](Cc1c[nH]cn1)NC(=O)[C@H](CCCNC(=N)N)NC(=O)[C@H](CC(C)C)NC(=O)[C@H](Cc1ccccc1)NC(=O)[C@H](CC(N)=O)NC(=O)[C@H](C)NC(=O)[C@H](CC(C)C)NC(=O)[C@H](CCCNC(=N)N)NC(=O)[C@H](CCC(N)=O)NC(=O)[C@@H](NC(=O)[C@H](C)NC(=O)[C@@H]1CSSC[C@H](NC(=O)[C@H](CCCCN)NC(=O)CC[C@H](NC(=O)CCCCCCCCCCCCCCCCCCC(=O)O)C(=O)O)C(=O)N[C@@H](CC(N)=O)C(=O)N[C@@H]([C@@H](C)O)C(=O)N[C@@H](C)C(=O)N[C@@H]([C@@H](C)O)C(=O)N1)[C@@H](C)O)C(=O)N[C@@H](CC(C)C)C(=O)N1CCC[C@H]1C(=O)N1CCC[C@H]1C(=O)N[C@H](C(=O)N[C@@H](CC(N)=O)C(=O)N[C@H](C(=O)NCC(=O)N[C@@H](CO)C(=O)N[C@@H](CC(N)=O)C(=O)N[C@H](C(=O)N1CCC[C@H]1C(N)=O)[C@@H](C)O)C(C)C)[C@@H](C)O` [Example 154, N-alpha-[(S)-4-Carboxy-4-(19-carboxynonadecanoylamino)butyryl]-[Arg17,Pro37]-pramlintide] ({C20 diacid-γGlu}-KCNTATCATQRLANFLRHSSNNFGPILPPTNVGSNTP-NH2; disulfide 2-7 (inferred); C-terminus assumed), the EC50 in experiment [1] (setting [3]) was 0.057 nM.

The values are drawn from US8722849B2, “Polypeptides” (Novo Nordisk A/S, priority 2011, dated 2014).
